Results taken from patent US7935869B2, “Chimeric gene with several herbicide tolerance genes, plant cell and plant resistant to several herbicides” (Bayer S.A.S., priority 1996, dated 2011).
Read-outs that look alike come from different tables or passages of the source.

Assays:
[1] = system: control tobacco, not transformed (PBD6); assay: Greenhouse treatment of non-transformed control tobacco with isoxaflutole; type: in vivo
Description: Upon leaving in vitro, the transformed tobacco plantlets were acclimatized in a greenhouse (60% relative humidity, temperature: 20° C. at night and 23° C. during the day) for five weeks and then treated with 4-[4-CF3-2-(methylsulphonyl)benzoyl]-5-cyclopropylisoxazole.
The control tobacco, not transformed and treated with 4-[4-CF3-2-(methylsulphonyl)benzoyl]-5-cyclopropylisooxazole at doses ranging from 50 to 400 g/ha, develop chlorosis in about 72 hours, which intensifies and develops into very pronounced necrosis within one week (covering about 80% of the terminal leaves).

[2] = system: PBD6 tobacco overexpressing the P. fluorescens HPPD; assay: Greenhouse treatment of transformed tobacco overexpressing HPPD with isoxaflutole; type: in vivo
Source text: To determine the efficiency of these two chimeric genes, they were transferred into the industrial tobacco PBD6 according to the transformation and regeneration techniques already described in European Application EP No. 0 508 909.
The vector is introduced into the non oncogenic Agrobacterium EHA 101 strain (Hood et al., 1987) carrying the cosmaid pTVK 291 (Komari et al., 1986). The transformation technique is based on the procedure by Horsh R. et al., (1985) Science, 227, 1229-1231.
The regeneration of the PBD6 tobacco (source SEITA France) from foliar explants is carried out on a Murashige and Skoog (MS) basal medium comprising 30 g/l of sucrose and 100 μg/ml of kanamycin. The foliar explants are removed from greenhouse plants or in vitro and transformed according to the foliar disc technique (Science 1985, Vol. 227, p. 1229-1231) in three successive stages: the first comprises the induction of shoots on an MS medium supplemented with 30 g/l of sucrose containing 0.05 mg/l of naphthylacetic acid (ANA) and 2 mg/l of benzylaminopurine (BAP) for 15 days. The shoots formed during this stage are then developed by culturing on an MS medium supplemented with 30 g/l of sucrose but containing no hormone, for 10 days. […]

[3] = system: PBD6 tobacco plants HPPD + OXY; assay: Postemergence tolerance of tobacco, percentage destruction; type: in vivo; settings: 17 days after treatment
Description: (§1) In this trial, each test is performed on a sample of 10 plants, 10 plants being kept untreated.
(§2) All the treatments are performed by spraying at the rate of 500 l of spraying mixture per hectare.
(§3) For the postemergence treatment, sowing is performed and then the plants are transplanted in 9 cm×9 cm pots.
(§4) The postemergence treatments are carried out at a well developed stage (3-4 leaves). Batches of plants, respectively wild-type and genetically transformed, obtained above are divided into several parts, with: […]

[4] = system: wild-type tobacco without tolerance gene; assay: as above; type: in vivo; settings: 17 days after treatment
Description: as §1, §2, §3, §4

[5] = system: PBD6 tobacco plants HPPD + EPSPS; assay: as above; type: in vivo; settings: 17 days after treatment
Description: as §1, §2, §3
The postemergence treatments are carried out at a well developed stage (3-4 leaves). Batches of plants, respectively wild-type and genetically transformed, obtained above are divided into several parts, with:
Under these conditions, the following phytotoxicities are observed 17 days after the treatment, expressed as percentage destruction indicated in the following table, as well as the number of plants per batch and the doses of herbicide(s) expressed in gram of active substance per hectare: […]

[6] = system: PBD6 tobacco transformed with pRP 2012; assay: Tolerance of tobacco transformed with chimeric gene pRP 2012 (HPPD + double mutant EPSPS); type: in vivo; settings: under the conditions described in Example 7
Description: The chimeric gene pRP 2012 described below is transferred into the PBD6 industrial tobacco according to the transformation and regeneration procedures already described in European Application EP No. 0 508 909.
The regeneration of the PBD6 tobacco (source SEITA France) from foliar explants is carried out on a Murashige and Skoog (MS) basal medium comprising 30 g/l of sucrose and 350 mg/l of cefotaxime and 1 mg/l of isoxaflutole. The foliar explants are removed from is greenhouse plants or in vitro and transformed according to the foliar disc technique (Science 1985, Vol. 227, p. 1229-1231) in three successive stages: the first comprises the induction of shoots on an MS medium supplemented with 30 g/l of sucrose containing 0.05 mg/l of naphthylacetic acid (ANA) and 2 mg/l of benzylaminopurine (BAP) for 15 days and 1 mg/l of isoxaflutole. The green shoots formed during this stage are then developed by culturing on an MS medium supplemented with 30 g/l of sucrose and 1 mg/l of isoxaflutole but containing no hormone, for 10 days. The shoots that have developed are then removed and they are cultured on MS rooting medium with half the content of salts, vitamins and sugars and 1 mg/l of isoxaflutole and containing no hormone. […]
All the plants obtained according to this protocol are analysed by PCR with primers specific for P. fluorescens HPPD. […]

nontransgenic maize = assay: Selection of maize seeds on sand after isoxaflutole treatment; type: in vivo; settings: 100 g/ha, 20 seeds sown
Description: (§5) The transformed plants obtained above produced pollen, assumed in part to be transgenic, which fertilized ovules from a nontransgenic wild-type maize. The seeds obtained are selected on sand after treating with isoxaflutole.
The selection protocol is the following: 800 ml of Fontainebleau sand are placed in a tub with sides 15×20 cm. These tubs are then sprayed with water and kept hydrated by supplying a nutritive solution consisting of 5 ml of Quinoligo (Quinoline) per litre of water. Twenty maize seeds are placed on the tubs, which are then treated with isoxaflutole by spraying at the rate of 100 to 200 g of active substance per hectare (300 or 600 μg of active substance per tub). The tubs are then placed in culture in a greenhouse.

[7] = system: maize genotype 261 2A2 (progeny of HPPD-transformed plants); assay: as above; type: in vivo; settings: 10 seeds sown
Description: as §5
(§6) The selection protocol is the following: 800 ml of Fontainebleau sand are placed in a tub with sides 15×20 cm. These tubs are then sprayed with water and kept hydrated by supplying a nutritive solution consisting of 5 ml of Quinoligo (Quinoline) per litre of water. […] The tubs are then placed in culture in a greenhouse.

[8] = system: maize genotype 261 2B 459 (progeny of HPPD-transformed plants); assay: as above; type: in vivo; settings: 10 seeds sown
Description: as §5, §6

[9] = system: maize genotype 261 2D2 (progeny of HPPD-transformed plants); assay: as above; type: in vivo; settings: 10 seeds sown
Description: as §5, §6

[10] = system: maize EPSPS mutant Ala 101/Ile 102; assay: EPSP synthase enzymatic activity, resistance to glyphosate in vitro; type: biochemical
Description: (§7) The various EPSP synthase genes are introduced in the form of an NcoI-HindIII cassette into the plasmid is vector pTrc99a (Pharmacia, ref: 27-5007-01) cut with NcoI and HindIII. The recombinant E. coli DH10B overexpressing the various EPSP syntheses are sonicated in 40 ml of buffer per 10 g of culotted cells and washed with this same buffer (200 mM Tris-HCl pH 7.8, 50 mM mercaptoethanol, 5 mM EDTA and 1 mM PMSF), to which 1 g of polyvinylpyrrolidone is added. The suspension is stirred for 15 minutes at 4° C. and then centrifuged for 20 minutes at 27,000 g and at 4° C.
(§8) The supernatant is supplemented with ammonium sulphate so as to bring the solution to 40% saturation with ammonium sulphate. The mixture is centrifuged for 20 minutes at 27,000 g and at 4° C. The new supernatant is supplemented with ammonium sulphate so as to bring the solution to 70% saturation with ammonium sulphate. The mixture is centrifuged for 30 minutes at 27,000 g and at 4° C. The EPSP synthase present in this protein pellet is taken up in 1 ml of buffer (20 mM Tris-HCl pH 7.8 and 50 mM mercaptoethanol). This solution is dialysed overnight against two litres of this same buffer at 4° C.
(§9) The activity of each enzyme as well as its resistance to glyphosate is measured in vitro over 10 minutes at 37° C. in the following reaction mixture: 100 mM maleic acid pH 5.6, 1 mM phosphoenol pyruvate, 3 mM shikimate-3-phosphate (prepared according to Knowles P. P. and Sprinson D. B., 1970, Methods in Enzymol., 17A, 351-352 from Aerobacter aerogenes strain ATCC 25597) and 10 mM potassium fluoride. The enzymatic extract is added at the last moment after the addition of glyphosate whose final concentration varies from 0 to 20 mM.
(§10) The activity is measured by assaying the phosphate liberated according to the technique of Tausky H. A. and Shorr B., 1953, J. Biol. Chem., 202, 675-685.

maize EPSPS mutant Ala = assay: as above; type: biochemical
Description: as §7, §8, §9, §10

[11] = target: T1, maize EPSPS mutant Ile 102 (Zea mays, UniProt A0A1D6NVZ6, T164I); assay: as above; type: biochemical
T1 sequence (A0A1D6NVZ6 63-506 T164I): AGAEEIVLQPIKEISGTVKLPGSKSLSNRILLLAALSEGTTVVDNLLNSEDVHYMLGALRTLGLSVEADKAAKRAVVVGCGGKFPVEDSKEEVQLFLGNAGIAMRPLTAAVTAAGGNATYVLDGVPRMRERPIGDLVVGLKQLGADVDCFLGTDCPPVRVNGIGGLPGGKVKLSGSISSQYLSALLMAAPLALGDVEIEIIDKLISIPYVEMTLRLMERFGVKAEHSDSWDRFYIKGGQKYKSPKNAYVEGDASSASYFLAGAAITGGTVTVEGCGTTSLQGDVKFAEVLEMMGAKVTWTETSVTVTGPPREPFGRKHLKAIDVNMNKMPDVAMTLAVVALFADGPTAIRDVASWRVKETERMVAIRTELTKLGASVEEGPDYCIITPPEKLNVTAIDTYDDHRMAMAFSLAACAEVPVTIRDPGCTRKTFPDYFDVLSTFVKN
Description: as §7, §8, §9, §10

[12] = system: maize EPSPS mutant Ile 102/Ser 106; assay: as above; type: biochemical
Description: as §7, §8, §9, §10

[13] = system: maize EPSPS mutant Ser106; assay: as above; type: biochemical; settings: 0.12 mM glyphosate
Description: as §7, §8, §9, §10

[14] = system: wild-type (WT) maize EPSPS; assay: as above; type: biochemical; settings: 0.12 mM glyphosate; 10 minutes at 37° C., pH 5.6
Description: as §7, §8, §9, §10

CS(=O)(=O)c1cc(C(F)(F)F)ccc1C(=O)c1cnoc1C1CC1 [isoxaflutole, 4-[4-CF3-2-(methylsulphonyl)benzoyl]-5-cyclopropylisoxazole]
time to development of chlorosis ([1]; doses ranging from 50 to 400 g/ha): about 72 hours
very pronounced necrosis, share of the terminal leaves covered ([1]; within one week, doses 50 to 400 g/ha): about 80%
protection against treatment ([2]; dose of 400 g/ha): very well protected
protection against treatment, symptoms ([2]; enzyme overexpressed in the chloroplast (vector pRP V)): perfectly protected and shows no symptom
phytotoxicity, percentage destruction ([3]; 200 g/ha postemergence): 4%
phytotoxicity, percentage destruction ([3]; 400 g/ha postemergence): 5%
phytotoxicity, percentage destruction ([4]; 200 g/ha postemergence): 75%
phytotoxicity, percentage destruction ([4]; 400 g/ha postemergence): 85%
phytotoxicity, percentage destruction ([5]; 200 g/ha postemergence): 2%
phytotoxicity, percentage destruction ([5]; 400 g/ha postemergence): 3%
tolerance [6]: tolerant
Number of dead plants (nontransgenic maize): 20
Number of germinated plants (nontransgenic maize): 20
Number of surviving plants (nontransgenic maize): 0
Number of dead plants ([7]; 100 g/ha): 3
Number of germinated plants ([7]; 100 g/ha): 5
Number of surviving plants ([7]; 100 g/ha): 2
Number of dead plants ([7]; 200 g/ha): 7
Number of germinated plants ([7]; 200 g/ha): 7
Number of surviving plants ([7]; 200 g/ha): 0
Number of dead plants ([8]; 100 g/ha): 5
Number of germinated plants ([8]; 100 g/ha): 10
Number of surviving plants ([8]; 100 g/ha): 5
Number of dead plants ([8]; 200 g/ha): 4
Number of germinated plants ([8]; 200 g/ha): 9
Number of surviving plants ([8]; 200 g/ha): 5
Number of dead plants ([9]; 100 g/ha): 6
Number of germinated plants ([9]; 100 g/ha): 9
Number of surviving plants ([9]; 100 g/ha): 3
Number of dead plants ([9]; 200 g/ha): 7
Number of germinated plants ([9]; 200 g/ha): 10
Number of surviving plants ([9]; 200 g/ha): 3

O=C(O)CNCP(=O)(O)O [glyphosate]
inhibition of enzyme activity ([10]; 0.12 mM glyphosate): not or not strongly inhibited
inhibition of enzyme activity ([10]; 1.2 mM glyphosate): not being inhibited
inhibition of enzyme activity ([10]; up to concentrations of 10 m glyphosate): not inhibited
inhibition of enzyme activity (maize EPSPS mutant Ala): not inhibited
inhibition of enzyme activity (maize EPSPS mutant Ala; 1.2 mM glyphosate): not being inhibited
inhibition of enzyme activity ([11]; 0.12 mM glyphosate): not or not strongly inhibited
IC50 ([11]; 10 minutes at 37° C., pH 5.6, read-out: glyphosate concentration to inhibit the enzyme by 50%): 1200 µM
inhibition of enzyme activity ([12]; 0.12 mM glyphosate): not or not strongly inhibited
inhibition of enzyme activity ([12]; 1.2 mM glyphosate): not being inhibited
reduction of enzyme activity ([12]; 20 mM glyphosate): not reduced
inhibition of enzyme activity [13]: 50%
inhibition of enzyme activity [14]: 85%
phytotoxicity, percentage destruction ([4]; 800 g/ha postemergence): 100%
phytotoxicity, percentage destruction ([4]; 1200 g/ha postemergence): 100%
phytotoxicity, percentage destruction ([5]; 800 g/ha postemergence): 0%
phytotoxicity, percentage destruction ([5]; 1200 g/ha postemergence): 0%
tolerance [6]: tolerant
